# According to patent US8778871B2 (Takeda Pharmaceutical Company Limited, priority 2004, dated 2014):
# Starred links: 1 amine or outer side, 2 acyl side, 3 side chain; linkers in the order of their positions; H or OH if unused. Non-standard residues stand in square brackets, D forms with d. Residues, ends and D or L forms follow the SMILES beside them. Primed or numbered codes have the meaning given here. No end group written: not given here. *: point of attachment. Tyr(Me) = COc1ccc(C[C@H](N[*:1])C(=O)[*:2])cc1; d1Nal = N[C@H](Cc1cccc2ccccc12)C(=O)O; d2Nal = N[C@H](Cc1ccc2ccccc2c1)C(=O)O; Cyclohexanecarbonyl = O=C(C1CCCCC1)*; Arg(Me) = CNC(=N)NCCC[C@H](N)C(=O)O; hArg = N=C(N)NCCCC[C@H](N)C(=O)O; hPhe = N[C@@H](CCc1ccccc1)C(=O)O; 2Thi = N[C@@H](Cc1cccs1)C(=O)O; NMeS = CN[C@@H](CO)C(=O)O; Abu = CC[C@H](N)C(=O)O; Dap = NC[C@H](N)C(=O)O; Aib = CC(C)(N)C(=O)O; Bz = O=C(c1ccccc1)*; GABA = NCCCC(=O)O; azaGly = NNC(=O)O; For = O=C*
# Target: T1, hOT7T175 (Homo sapiens, UniProt Q969F8, L364H)
# T1 construct: expressed in transfected cells
# Format: cell-based
# Conditions: hOT7T175/CHO, FLIPR, evaluation for 40 seconds after initiation of the reaction
# T1 sequence (Q969F8 whole entry L364H): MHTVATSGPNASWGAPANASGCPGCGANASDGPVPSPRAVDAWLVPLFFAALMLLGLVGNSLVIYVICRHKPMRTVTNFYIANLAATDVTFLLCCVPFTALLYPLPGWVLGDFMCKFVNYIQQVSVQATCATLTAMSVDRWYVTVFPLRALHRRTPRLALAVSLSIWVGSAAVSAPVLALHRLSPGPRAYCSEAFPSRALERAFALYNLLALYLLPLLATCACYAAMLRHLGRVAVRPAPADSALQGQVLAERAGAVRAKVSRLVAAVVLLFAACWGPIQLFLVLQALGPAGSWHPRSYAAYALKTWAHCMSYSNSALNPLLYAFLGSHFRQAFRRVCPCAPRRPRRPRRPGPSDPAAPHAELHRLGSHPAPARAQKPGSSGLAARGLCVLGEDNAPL
row,Compound,Specific Act. (EC50/MS10 EC50)
1,Ac-D-Tyr-D-Trp-Asn-Thr-Tyr-AzaGly-Leu-Arg(Me)-Trp-NH2 (Ac-[dY][dW]NTY[azaGly]L[Arg(Me)]W-NH2; SMILES CNC(=N)NCCC[C@H](NC(=O)[C@H](CC(C)C)NC(=O)NNC(=O)[C@H](Cc1ccc(O)cc1)NC(=O)[C@@H](NC(=O)[C@H](CC(N)=O)NC(=O)[C@@H](Cc1c[nH]c2ccccc12)NC(=O)[C@@H](Cc1ccc(O)cc1)NC(C)=O)[C@@H](C)O)C(=O)N[C@@H](Cc1c[nH]c2ccccc12)C(N)=O) [Compound No. 691],1.1
2,Arg-Arg-D-Tyr-D-Pya(4)-Asn-Ser-Phe-AzaGly-Leu-Arg(Me)-Trp-NH2 [Compound No. 537],4.7
3,3-Phenylpropionyl-Asn-Pro-Phe-AzaGly-Leu-Arg(Me)-Trp-NH2 [Compound No. 524],1.1
4,Ac-[dY][dW]NTA[azaGly]L[Arg(Me)]W-NH2 [Compound No. 631],2
5,Cyclopropanecarbonyl-Asn-Ser-Phe-AzaGly-Leu-Arg(Me)-Trp-NH2 [Compound No. 534],5.6
6,Ac-[dY][dW][dN]TF[azaGly]L[Arg(Me)]W-NH2 [Compound No. 653],1.3
7,Ac-[dY][dW]D(NHMe)TF[azaGly]L[Arg(Me)]W-NH2 [Compound No. 702],0.6
8,Ac-[dY][dW]NT[2Thi][azaGly]L[Arg(Me)]W-NH2 [Compound No. 695],0.7
9,Ac-[dY][dW][Dap](For)SF[azaGly]L[Arg(Me)]W-NH2 [Compound No. 585],0.4
10,Ac-[dY][dW]N[NMeS]F[azaGly]L[Arg(Me)]W-NH2 [Compound No. 656],2.9
11,Ac-[dY][dW]NTF[azaGly]L[Arg(Me)][hPhe]-NH2 [Compound No. 594],2.1
12,Ac-[dY][dW][Dap]SF[azaGly]L[Arg(Me)]W-NH2 [Compound No. 701],1.4
13,Ac-[dY][dW][Abu]SF[azaGly]L[Arg(Me)]W-NH2 [Compound No. 573],0.7
14,Benzoyl-D-Trp-Asn-Thr-Phe-AzaGly-Leu-Arg(Me)-Trp-NH2 (Bz-[dW]NTF[azaGly]L[Arg(Me)]W-NH2; SMILES CNC(=N)NCCC[C@H](NC(=O)[C@H](CC(C)C)NC(=O)NNC(=O)[C@H](Cc1ccccc1)NC(=O)[C@@H](NC(=O)[C@H](CC(N)=O)NC(=O)[C@@H](Cc1c[nH]c2ccccc12)NC(=O)c1ccccc1)[C@@H](C)O)C(=O)N[C@@H](Cc1c[nH]c2ccccc12)C(N)=O) [Compound No. 669],0.5
15,Ac-[dY][dW]DTF[azaGly]L[Arg(Me)]W-NH2 [Compound No. 647],10.6
16,Ac-[dY][dW]NTF[azaGly]L[hArg]W-NH2 [Compound No. 645],1.1
17,Ac-[dY][dW]NTF[azaGly]LR(Et)W-NH2 [Compound No. 609],0.9
18,D-Arg-Acp-D-Tyr-D-Trp-Abu-Ser-Phe-AzaGly-Leu-Arg(Me)-Trp-NH2 [Compound No. 561],1.6
19,Ac-Tyr-D-Pya(4)-Asn-Thr-Phe-AzaGly-Leu-Arg(Me)-Trp-NH2 [Compound No. 611],1.7
20,[dY][dW]NVF[azaGly]L[Arg(Me)]W-NH2 [Compound No. 539],1.2
21,Ac-D-Tyr-D-Trp-Asn-Thr-Phe-AzaGly-Leu-Har(Me)-Trp-NH2 [Compound No. 646],1.8
22,Amidino-D-Tyr-D-Trp-Asn-Thr-Phe-AzaGly-Leu-Arg(Me)-Trp-NH2 [Compound No. 614],0.8
23,Ac-D-Tyr-D-Pro-Asn-Thr-Phe-AzaGly-Leu-Arg(Me)-Trp-NH2 (Ac-[dY][dP]NTF[azaGly]L[Arg(Me)]W-NH2; SMILES CNC(=N)NCCC[C@H](NC(=O)[C@H](CC(C)C)NC(=O)NNC(=O)[C@H](Cc1ccccc1)NC(=O)[C@@H](NC(=O)[C@H](CC(N)=O)NC(=O)[C@H]1CCCN1C(=O)[C@@H](Cc1ccc(O)cc1)NC(C)=O)[C@@H](C)O)C(=O)N[C@@H](Cc1c[nH]c2ccccc12)C(N)=O) [Compound No. 661],8.5
24,Me-D-Tyr-D-Trp-Asn-Thr-Phe-AzaGly-Leu-Arg(Me)-Trp-NH2 [Compound No. 570],0.5
25,Bz-NTF[azaGly]L[Arg(Me)]W-NH2 [Compound No. 522],1.9

row,Compound,Specific Act. (EC50/MS10 EC50)
1,[dR][dR][GABA][dY][dW]NTF[azaGly]L[Arg(Me)]W-NH2 [Compound No. 556],2.8
2,Ac-[d1Nal][dW]NTF[azaGly]L[Arg(Me)]W-NH2 [Compound No. 619],1.5
3,Ac-D-Tyr-D-Trp-Asn-Thr-Phe-Gly-Aib-Arg(Me)-Trp-NH2 (Ac-[dY][dW]NTFG[Aib][Arg(Me)]W-NH2; SMILES CNC(=N)NCCC[C@H](NC(=O)C(C)(C)NC(=O)CNC(=O)[C@H](Cc1ccccc1)NC(=O)[C@@H](NC(=O)[C@H](CC(N)=O)NC(=O)[C@@H](Cc1c[nH]c2ccccc12)NC(=O)[C@@H](Cc1ccc(O)cc1)NC(C)=O)[C@@H](C)O)C(=O)N[C@@H](Cc1c[nH]c2ccccc12)C(N)=O) [Compound No. 700],0.8
4,D-Tyr-D-Pya(4)-Asn-Tle-Phe-AzaGly-Leu-Arg(Me)-Trp-NH2 [Compound No. 529],1.8
5,Ac-D-Tyr-D-Pya(4)-Asn-Thr-Phe-AzaGly-Leu-Arg(Me)-Phe-NH2 [Compound No. 685],4.8
6,Ac-[dY][dW]QSF[azaGly]L[Arg(Me)]W-NH2 [Compound No. 576],0.8
7,D-Tyr-D-Pya(4)-Asn-Phg-Phe-AzaGly-Leu-Arg(Me)-Trp-NH2 [Compound No. 530],3.4
8,Ac-[dY][dW]NTL[azaGly]L[Arg(Me)]W-NH2 [Compound No. 632],1.1
9,Ac-D-Tyr-D-Trp-Asn-Thr-Trp-AzaGly-Leu-Arg(Me)-Trp-NH2 (Ac-[dY][dW]NTW[azaGly]L[Arg(Me)]W-NH2; SMILES CNC(=N)NCCC[C@H](NC(=O)[C@H](CC(C)C)NC(=O)NNC(=O)[C@H](Cc1c[nH]c2ccccc12)NC(=O)[C@@H](NC(=O)[C@H](CC(N)=O)NC(=O)[C@@H](Cc1c[nH]c2ccccc12)NC(=O)[C@@H](Cc1ccc(O)cc1)NC(C)=O)[C@@H](C)O)C(=O)N[C@@H](Cc1c[nH]c2ccccc12)C(N)=O) [Compound No. 692],0.7
10,3-Phenylpropionyl-Asn-Ser-Cha-Gly-Leu-Arg(Me)-Trp-NH2 [Compound No. 518],10.5
11,"CNC(=N)NCCC[C@H](NC(=O)[C@H](CC(C)C)NC(=O)NNC(=O)[C@H](Cc1ccccc1)NC(=O)[C@H](CO)NC(=O)[C@H](CC(N)=O)NC(=O)[C@H](CO)NC(=O)[C@H](N)Cc1ccc(O)cc1)C(=O)N[C@@H](Cc1ccccc1)C(N)=O [Compound No. 239, D-Tyr-Ser-Asn-Ser-Phe-AzaGly-Leu-Arg(Me)-Phe-NH2] (H-[dY]SNSF[azaGly]L[Arg(Me)]F-NH2)",6.7
12,3-Phenylpropionyl-Asn-Ser(Ac)-Phe-AzaGly-Leu-Arg(Me)-Trp-NH2 [Compound No. 546],1.9
13,Ac-[dY][dW]N[dT]F[azaGly]L[Arg(Me)]W-NH2 [Compound No. 654],2.9
14,Cyclohexanecarbonyl-D-Trp-Asn-Thr-Phe-AzaGly-Leu-Arg(Me)-Trp-NH2 (Cyclohexanecarbonyl-[dW]NTF[azaGly]L[Arg(Me)]W-NH2; SMILES CNC(=N)NCCC[C@H](NC(=O)[C@H](CC(C)C)NC(=O)NNC(=O)[C@H](Cc1ccccc1)NC(=O)[C@@H](NC(=O)[C@H](CC(N)=O)NC(=O)[C@@H](Cc1c[nH]c2ccccc12)NC(=O)C1CCCCC1)[C@@H](C)O)C(=O)N[C@@H](Cc1c[nH]c2ccccc12)C(N)=O) [Compound No. 668],1.2
15,D-Tyr-D-Pya(4)-Asn-Ser-Phe-AzaGly-Leu-Arg-Phe-NH2 [Compound No. 521],2.4
16,[dR][dR][dR][GABA][dY][dW]NTF[azaGly]L[Arg(Me)]W-NH2 [Compound No. 557],3.2
17,Ac-[dR][dY][dW]NTF[azaGly]L[Arg(Me)]W-NH2 [Compound No. 568],0.6
18,D-Tyr-D-Pya(4)-Asn-Hyp-Phe-AzaGly-Leu-Arg(Me)-Trp-NH2 [Compound No. 527],3.3
19,Amidino-D-Trp-Asn-Thr-Phe-AzaGly-Leu-Arg(Me)-Trp-NH2 (Amidino-[dW]NTF[azaGly]L[Arg(Me)]W-NH2) [Compound No. 679],1.8
20,Ac-[d2Nal][dW]NTF[azaGly]L[Arg(Me)]W-NH2 [Compound No. 620],1.7
21,Ac-D-Tyr-D-Trp-Asn-Thr-Phe-AzaGly-Leu-Pya(4)-Trp-NH2 (Ac-[dY][dW]NTF[azaGly]L-{Pya(4)-Trp-NH2}) [Compound No. 688],9.7
22,Ac-D-Tyr-D-Trp-Alb-Ser-Phe-AzaGly-Leu-Arg(Me)-Trp-NH2 [Compound No. 579],0.6
23,Ac-D-Tyr-D-Trp-Asn-Thr-Tyr(Me)-AzaGly-Leu-Arg(Me)-Trp-NH2 (Ac-[dY][dW]NT[Tyr(Me)][azaGly]L[Arg(Me)]W-NH2; SMILES CNC(=N)NCCC[C@H](NC(=O)[C@H](CC(C)C)NC(=O)NNC(=O)[C@H](Cc1ccc(OC)cc1)NC(=O)[C@@H](NC(=O)[C@H](CC(N)=O)NC(=O)[C@@H](Cc1c[nH]c2ccccc12)NC(=O)[C@@H](Cc1ccc(O)cc1)NC(C)=O)[C@@H](C)O)C(=O)N[C@@H](Cc1c[nH]c2ccccc12)C(N)=O) [Compound No. 693],1.5
24,Ac-D-Tyr-D-Trp-Asn-Thr-Phe-AzaGly-γMeLeu-Arg(Me)-Trp-NH2 (Ac-[dY][dW]NTF[azaGly]-{γMeLeu-Arg(Me)-Trp-NH2}) [Compound No. 699],1.3
25,2-Naphthoyl-Asn-Ser-Phe-AzaGly-Leu-Arg(Me)-Trp-NH2 [Compound No. 535],0.8
